Experimental findings from article PMC10625055, “A novel Bruton's tyrosine kinase inhibitor JDB175 shows potent efficacy to suppress central nervous system lymphoma” (MedComm, 2023) are described below.

A word on the IC50: it is the concentration that inhibits the measured activity by half.

This assay concerns the target Bruton's tyrosine kinase (BTK) (Homo sapiens, UniProt Q06187). In words: radiometric kinase assay, recombinant human kinase. Type of assay: biochemical.

Sequence of Bruton's tyrosine kinase (BTK) (Q06187 2-659): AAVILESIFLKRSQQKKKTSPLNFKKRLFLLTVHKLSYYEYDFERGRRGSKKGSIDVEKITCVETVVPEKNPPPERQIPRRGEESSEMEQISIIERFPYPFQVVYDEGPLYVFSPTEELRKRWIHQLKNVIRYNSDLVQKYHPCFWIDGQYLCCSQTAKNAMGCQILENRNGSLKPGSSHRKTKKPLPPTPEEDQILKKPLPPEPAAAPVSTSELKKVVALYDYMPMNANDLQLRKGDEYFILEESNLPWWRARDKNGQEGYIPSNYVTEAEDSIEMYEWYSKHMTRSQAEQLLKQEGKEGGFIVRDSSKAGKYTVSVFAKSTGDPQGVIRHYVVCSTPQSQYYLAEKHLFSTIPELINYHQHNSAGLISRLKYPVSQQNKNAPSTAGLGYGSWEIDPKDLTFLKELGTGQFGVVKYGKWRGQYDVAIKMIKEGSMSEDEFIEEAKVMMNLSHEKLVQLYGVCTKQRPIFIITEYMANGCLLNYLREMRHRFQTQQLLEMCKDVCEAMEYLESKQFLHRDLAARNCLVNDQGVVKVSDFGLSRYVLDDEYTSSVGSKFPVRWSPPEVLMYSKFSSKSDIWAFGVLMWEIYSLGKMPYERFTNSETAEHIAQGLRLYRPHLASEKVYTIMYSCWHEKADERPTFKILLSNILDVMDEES

As to `C=CC(=O)N1CCC[C@@H](c2nn(-c3ccc(Oc4cccc(F)c4F)cc3)c3cncc(F)c23)C1` [JDB175], the IC50 came to 2.1 nM.
